# Test results from patent publication US20230391776A1, “AMIDE OXAZOLE COMPOUND” (MEDSHINE DISCOVERY INC., priority 2020, published 2023).
# Values joined by “and” are separate entries in the source; they are usually repeats but may differ in a detail not shown here. Equal entries are not always repeated.
# What was measured:
# [1] = test system: human diffuse large B lymphoma TMD8 cell subcutaneous xenograft; test: TMD8 subcutaneous xenograft tumor model (WX017 and WX027 study); conditions: 11th day after administration
# Description: a) TMD8 cells were cultured in RPMI-1640 medium containing 10% FBS and maintained in a 37° C. saturated humidity incubator with 5% CO2. TMD8 cells in logarithmic period were collected, resuspended in RPMI-1640 basal medium, and Matrigel was added at 1:1, and the cell concentration was adjusted to 4×10^7/mL. Under aseptic conditions, 0.1 mL of cell suspension was inoculated under the skin of the right back of SCID mice, and the inoculation concentration was 4×10^6/0.1 mL/mouse.
# When the tumor grew to a certain size, the animals with too large, too small or irregular tumor shape were excluded, and the animals with tumor volume of 108.76-188.11 mm^3 were selected. According to the tumor volume, the animals were divided into 10 groups by random block method, with 6 mice in each group, and the average tumor volume was about 152.11 mm^3. The health status and death of animals were monitored every day, and routine examinations included observing the effects of tumor growth and drug treatment on daily behaviors of animals, such as behavioral activities, food intake and water intake, weight change (weight was measured twice a week), tumor size (tumor volume was measured twice a week), appearance signs or other abnormal conditions.
# The formula for calculating tumor volume (TV) was: 1/2×a×b^2, where a and b were the measured length and width of the tumor respectively. The formula for calculating the tumor inhibition rate TGI (%)=[1−(average tumor volume at the end of administration in a treatment group-average tumor volume at the beginning of administration in the treatment group))/(average tumor volume at the end of treatment in solvent control group-average tumor volume at the beginning of treatment in solvent control group)]×100%.
# In this study, the experimental data were all expressed by Mean±SEM. Statistical analysis was based on the data of RTV at the end of the experiment and analyzed by IBM SPSS Statistics software. T test was used to analyze the comparison between two groups, and one-way ANOVA was used to analyze the comparison between three or more groups. If the variance was even (there was no significant difference in F value), Tukey's method was used to analyze it, and if the variance was uneven (there was significant difference in F value), Games-Howell method was used to test it. p<0.05 was deemed to a significant difference.
# [2] = test system: human diffuse large B lymphoma TMD8 cell subcutaneous xenograft; test: TMD8 subcutaneous xenograft tumor model (WX009 study); format: in vivo, SCID mouse; conditions: 18th day after administration
# Text: The formula for calculating the tumor inhibition rate TGI (%)=[1−(average tumor volume at the end of administration in a treatment group-average tumor volume at the beginning of administration in the treatment group))/(average tumor volume at the end of treatment in solvent control group-average tumor volume at the beginning of treatment in solvent control group)]×100%.
# [3] = test system: TNF-α secretion induced by LPS; test: TNF-α secretion model induced by LPS in SD rats; format: in vivo; conditions: 25 mpk oral gavage 0.5 h before 1 mg/kg LPS i.p., plasma 2 hours after modeling, p<0.01
# Description: a) The pharmacokinetic effect of compound WX009 on TNF-α secretion model induced by LPS in SD rats.
# Female SD rats were randomly divided into four groups according to the animal weight, namely Sham group, Model group and Dexamethasone (dosage: 0.5 mpk, DEX-0.5 mpk) group and tested drug WX009 (dosage: 25 mpk, WX009-25 mpk) group, with 6-9 animals in each group. The model was established by a single intraperitoneal injection of 1 mg/kg LPS. Dexamethasone and tested drug were given orally by gavage 0.5 h before modeling. After modeling for 2 hours, the animals were weighed, and all the experimental animals were anesthetized by intraperitoneal injection of pentobarbital sodium. An anticoagulant whole blood was collected through sublingual vein, anticoagulant: EDTA-K2, the plasma was separated, and the plasma volume was about 200 μL, which was used to detect the content of inflammatory factor, TNF-α.
SMILES,TGI ([1]; 3 mg/kg BID PO) [%],TGI ([1]; 10 mg/kg BID PO) [%],TGI ([1]; 20 mg/kg BID PO) [%],TGI ([2]; 5 mg/kg BID PO),TGI ([2]; 10 mg/kg BID PO) [%],TGI ([2]; 20 mg/kg BID PO) [%],TNF-α content in animal plasma compared with the Model group [3]
CC(C)(O)c1cn2cc(NC(=O)c3coc(-c4ccnc(N)c4F)n3)c(-c3ccccc3)cc2n1 [WX027],78,90,104,,,,
Cc1cc(-c2nc(C(=O)Nc3cn4cc(C(C)(C)O)nc4cc3-c3ccccc3)co2)ccn1 [WX009],,,,86% and 86.28%,85.10,96.55,significantly reduce
CC(C)(O)c1cn2cc(NC(=O)c3coc(-c4ccnc(N)c4)n3)c(-c3ccccc3)cc2n1 [WX017],86,100,114,,,,
